Patent US20080194617A1, “Fused ring compound” (priority 2007, published 2008)

Each compound was assayed against T1, PPARγ-RXRα heterodimer (Homo sapiens, UniProt P37231) (assay: PPARγ-RXRα heterodimer ligand activity (luciferase reporter assay in PPARγ:RXRα:4ERPP/CHO-K1 cells)). Conditions: incubated one day with test compound, luciferase induction rate, compound concentration showing 50% of the maximum value of induction rate.
T1 construct: expressed in transfected cells; host or cells: CHO-K1 (PPARγ:RXRα:4ERPP/CHO-K1)
T1 sequence (P37231 1-505): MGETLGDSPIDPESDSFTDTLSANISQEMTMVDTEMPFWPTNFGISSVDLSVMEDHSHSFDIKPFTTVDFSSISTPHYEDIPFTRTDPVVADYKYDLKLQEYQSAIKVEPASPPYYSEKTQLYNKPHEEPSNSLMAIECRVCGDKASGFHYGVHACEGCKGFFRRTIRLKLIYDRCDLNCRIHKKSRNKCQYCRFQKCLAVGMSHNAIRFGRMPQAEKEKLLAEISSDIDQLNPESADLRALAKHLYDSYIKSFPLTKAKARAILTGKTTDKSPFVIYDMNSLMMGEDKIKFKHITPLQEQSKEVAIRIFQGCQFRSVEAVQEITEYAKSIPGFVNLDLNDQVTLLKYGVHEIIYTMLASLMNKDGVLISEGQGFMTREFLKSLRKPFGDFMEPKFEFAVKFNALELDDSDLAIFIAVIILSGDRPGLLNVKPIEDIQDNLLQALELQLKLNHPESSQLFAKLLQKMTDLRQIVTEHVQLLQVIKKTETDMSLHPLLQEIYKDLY
T1 sequence (P19793 1-462 partner): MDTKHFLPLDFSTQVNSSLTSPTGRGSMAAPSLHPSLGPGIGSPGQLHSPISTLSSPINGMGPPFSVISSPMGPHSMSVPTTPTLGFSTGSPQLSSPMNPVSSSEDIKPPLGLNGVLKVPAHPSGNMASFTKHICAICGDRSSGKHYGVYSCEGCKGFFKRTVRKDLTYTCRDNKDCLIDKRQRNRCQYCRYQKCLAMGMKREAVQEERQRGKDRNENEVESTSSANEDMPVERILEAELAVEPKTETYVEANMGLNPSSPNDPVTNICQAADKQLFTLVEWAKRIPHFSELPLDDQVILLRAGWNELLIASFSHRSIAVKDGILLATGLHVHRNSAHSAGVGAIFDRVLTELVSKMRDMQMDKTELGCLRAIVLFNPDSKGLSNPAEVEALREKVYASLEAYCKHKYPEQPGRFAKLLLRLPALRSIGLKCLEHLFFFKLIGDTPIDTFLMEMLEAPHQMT
Format: cell-based
Method: The PPARγ:RXRα:4ERPP/CHO-K1 cells described in WO03/099793 were cultured in a Ham F12 medium [manufactured by Life Technologies, Inc., US] containing 10% calf fetal serum [manufactured by Life Technologies, Inc., US], sown in a 96-well white plate [manufactured by Corning Coster Corporation, US] at 1×10^4 cells/well, and incubated overnight in a carbon dioxide gas incubator at 37° C.
Then, the medium was removed from the 96 well white plate, 45 μl of Ham F12 medium containing 0.1% fatty acid-free bovine serum albumin (BSA) and a test compound (5 μl) were added, and the cells were incubated for one day in a carbon dioxide gas incubator at 37° C. The medium was removed, 20 μl of PicaGene 7.5 (manufactured by Wako Pure Chemical Industries, Ltd.) 2-fold diluted with HBSS (HANKS' BALANCED SALT SOLUTION) [manufactured by BIO WHITTAKER, US] was added. After stirring, the luciferase activity was determined using the 1420 ARVO Multilabel Counter [manufactured by PerkinElmer, US].
The induction rate was calculated from the luciferase activity of each test compound based on the luciferase activity of the test compound non-administration group as 1. The test compound concentration and the induction rate were analyzed by PRISM [manufactured by GraphPad Software, Inc., US] to calculate EC50 value (compound concentration showing 50% of the maximum value of induction rate) of the test compound.

| Structure (SMILES) | EC50 [µM] |
| --- | --- |
| CCCCCS(=O)(=O)NC(=O)/C=C/c1c(C)nn(C)c1-n1ccc2ccccc21 [Example 7, potassium {(2E)-3-[5-(1H-indol-1-yl)-1,3-dimethyl-1H-pyrazol-4-yl]prop-2-enoyl}(pentylsulfonyl)azanide] | 0.039 |
| CCCCNC(=O)NS(=O)(=O)CCc1c(C2CC2)nn(C)c1-n1ccc2cc(Cl)cnc21 [Example 279, N-[(butylamino)carbonyl]-2-[5-(5-chloro-1H-pyrrolo[2,3-b]pyridin-1-yl)-3-cyclopropyl-1-methyl-1H-pyrazol-4-yl]ethanesulfonamide] | 0.06 |
| CCCCOC(=O)NS(=O)(=O)CCc1c(C)nn(C)c1-n1ccc2cc(C(F)(F)F)cnc21 [Example 295, butyl [(2-{1,3-dimethyl-5-[5-(trifluoromethyl)-1H-pyrrolo[2,3-b]pyridin-1-yl]-1H-pyrazol-4-yl}ethyl)sulfonyl]carbamate] | 0.022 |
| Cc1nn(C)c(-n2ccc3cc(Cl)ccc32)c1/C=C1\SC(=O)NC1=O [Example 84, (5Z)-5-{[5-(5-chloro-1H-indol-1-yl)-1,3-dimethyl-1H-pyrazol-4-yl]methylene}-1,3-thiazolidine-2,4-dione] | 0.22 |
| Cc1nn(C)c(-n2ccc3cc(Cl)ccc32)c1CCS(=O)(=O)NC(=O)OCC1CC1 [Example 189, cyclopropylmethyl ({2-[5-(5-chloro-1H-indol-1-yl)-1,3-dimethyl-1H-pyrazol-4-yl]ethyl}sulfonyl)carbamate] | 0.054 |
| CCCCCS(=O)(=O)NC(=O)CCc1c(C)nn(C)c1N1CCc2cccnc21 [Example 40, 3-[5-(2,3-dihydro-1H-pyrrolo[2,3-b]pyridin-1-yl)-1,3-dimethyl-1H-pyrazol-4-yl]-N-(pentylsulfonyl)propanamide] | 0.012 |
| CCCCCS(=O)(=O)NC(=O)/C=C/c1c(C)nn(C)c1-n1ccc2ccc(C(F)(F)F)cc21 [Example 31, potassium ((2E)-3-{1,3-dimethyl-5-[6-(trifluoromethyl)-1H-indol-1-yl]-1H-pyrazol-4-yl}prop-2-enoyl)(pentylsulfonyl)azanide] | 0.0055 |
| CCCCNC(=O)NS(=O)(=O)CCc1c(C)nn(C)c1-n1ccc2cc(C(F)(F)F)cnc21 [Example 294, N-[(butylamino)carbonyl]-2-{1,3-dimethyl-5-[5-(trifluoromethyl)-1H-pyrrolo[2,3-b]pyridin-1-yl]-1H-pyrazol-4-yl}ethanesulfonamide] | 0.032 |
| CCCCOC(=O)NS(=O)(=O)CCc1c(C(F)(F)F)nn(C)c1-n1ccc2cc(Cl)cnc21 [Example 197, butyl ({2-[5-(5-chloro-1H-pyrrolo[2,3-b]pyridin-1-yl)-1-methyl-3-(trifluoromethyl)-1H-pyrazol-4-yl]ethyl}sulfonyl)carbamate] | 0.086 |
| CCCCCS(=O)(=O)NC(=O)OCCc1c(C)nn(C)c1-n1ccc2cc(Cl)ccc21 [Example 66, 2-[5-(5-chloro-1H-indol-1-yl)-1,3-dimethyl-1H-pyrazol-4-yl]ethyl (pentylsulfonyl)carbamate] | 0.022 |
| CCCCCS(=O)(=O)NC(=O)NCCCc1c(C)nn(C)c1-n1ccc2cc(Cl)ccc21 [Example 82, N-[({3-[5-(5-chloro-1H-indol-1-yl)-1,3-dimethyl-1H-pyrazol-4-yl]propyl}amino)carbonyl]pentane-1-sulfonamide] | 0.067 |

Continued, values first:

| EC50 [µM] | Structure (SMILES) |
| --- | --- |
| 0.024 | CCCCNS(=O)(=O)NC(=O)/C=C/c1c(C)nn(C)c1-n1ccc2cc(Cl)ccc21 [Example 99, (2E)-N-[(butylamino)sulfonyl]-3-[5-(5-chloro-1H-indol-1-yl)-1,3-dimethyl-1H-pyrazol-4-yl]acrylamide] |
| 0.044 | Cc1nn(C)c(-n2ccc3cc(Cl)ccc32)c1/C=C/C(=O)NS(=O)(=O)c1ccco1 [Example 55, (2E)-3-[5-(5-chloro-1H-indol-1-yl)-1,3-dimethyl-1H-pyrazol-4-yl]-N-(2-furylsulfonyl)acrylamide] |
| 0.019 | CCCCCS(=O)(=O)NC(=O)/C=C/c1c(C)nn(C)c1-c1csc2ccccc12 [Example 6, (2E)-3-[5-(1-benzothien-3-yl)-1,3-dimethyl-1H-pyrazol-4-yl]-N-(pentylsulfonyl)acrylamide] |
| 0.064 | CCCCCS(=O)(=O)NC(=O)/C=C/c1c(C)nn(C)c1-n1ccc2cccnc21 [Example 9, (2E)-3-[1,3-dimethyl-5-(1H-pyrrolo[2,3-b]pyridin-1-yl)-1H-pyrazol-4-yl]-N-(pentylsulfonyl)acrylamide] |
| 0.026 | Cc1nn(C)c(-n2ccc3cc(Cl)cnc32)c1/C=C/C(=O)NS(=O)(=O)NCC1CC1 [Example 264, (2E)-3-[5-(5-chloro-1H-pyrrolo[2,3-b]pyridin-1-yl)-1,3-dimethyl-1H-pyrazol-4-yl]-N-{[(cyclopropylmethyl)amino]sulfonyl}acrylamide] |
| 0.054 | CCCCCS(=O)(=O)NC(=O)/C=C/c1c(C)nn(C)c1-c1cccc2cccnc12 [Example 24, (2E)-3-[1,3-dimethyl-5-(quinolin-8-yl)-1H-pyrazol-4-yl]-N-(pentylsulfonyl)acrylamide] |
| 0.088 | Cc1ccc(S(=O)(=O)NC(=O)/C=C/c2c(C)nn(C)c2-n2ccc3cccnc32)cc1 [Example 33, (2E)-3-[1,3-dimethyl-5-(1H-pyrrolo[2,3-b]pyridin-1-yl)-1H-pyrazol-4-yl]-N-[(4-methylphenyl)sulfonyl]acrylamide] |
| 0.014 | CCCCS(=O)(=O)NC(=O)/C=C/c1c(C)nn(C)c1-n1ccc2cc(Cl)cnc21 [Example 283, (2E)-N-(butylsulfonyl)-3-[5-(5-chloro-1H-pyrrolo[2,3-b]pyridin-1-yl)-1,3-dimethyl-1H-pyrazol-4-yl]acrylamide] |
| 0.0061 | CCCCCS(=O)(=O)NC(=O)/C=C/c1c(C)nn(C)c1-n1ccc2cc(Cl)ccc21 [Example 27, (2E)-3-[5-(5-chloro-1H-indol-1-yl)-1,3-dimethyl-1H-pyrazol-4-yl]-N-(pentylsulfonyl)acrylamide] |
| 0.037 | CCCCCNS(=O)(=O)NC(=O)/C=C/c1c(C)nn(C)c1-n1ccc2cc(Cl)ccc21 [Example 62, (2E)-3-[5-(5-chloro-1H-indol-1-yl)-1,3-dimethyl-1H-pyrazol-4-yl]-N-[(pentylamino)sulfonyl]acrylamide] |
| 0.015 | CCCCCS(=O)(=O)NC(=O)/C=C/c1c(C)nn(C)c1-n1ccc2cc(C)cnc21 [Example 232, (2E)-3-[1,3-dimethyl-5-(5-methyl-1H-pyrrolo[2,3-b]pyridin-1-yl)-1H-pyrazol-4-yl]-N-(pentylsulfonyl)acrylamide] |
